Laboratory results from PMC4167698, “Fatty Acid Esters of Phloridzin Induce Apoptosis of Human Liver Cancer Cells through Altered Gene Expression” (PLoS ONE, 2014).

How the values were obtained:
[1] = system: normal human hepatocytes (HP-F); assay: MTS cell viability assay, normal human hepatocytes; type: cell-based; settings: 24 h
Experimental: (§1) Cell viability was determined by using the MTS assay. In brief, HepG2 cells (5×10^3 cells/100 µL/well), MDA-MB-231 (5×10^3 cells/100 µL/well), THP-1 (25×10^3/100 µL/well), normal human and rat hepatocytes (1×10^4 cells/100 µL/well) were plated in triplicate, in a 96 well sterile flat bottom tissue culture plates. […] Thereby, cells were exposed to various concentrations (0.1, 1, 10, 25, 50, 75, 100 µM) of each treatment. Controls consist of cells with media containing DMSO (<0.5%), test blank wells contained the test compound in media with no cells and blank wells contained media with no cells. After additional 3, 6, 12, 18 or 24 h, 20 µL of the MTS reagent in combination with the electron coupling agent, phenazine methosulfate were added to the wells and cells were incubated in a humidified incubator for 3 h. Absorbance at 490 nm (OD490) was measured by using a Flurostar Optima microplate reader (BMG Labtech, Cary, NC, USA) to obtain the number of viable cells relative to the control population. Percentage of viability of the test compound treated cells are expressed as percentage compared to control (<0.5% DMSO). […] The selective index (SI) of the fatty acid esters of phloridzin is defined as the ratio of cytotoxicity (EC50 values) on normal HP-F cells to solid cancer HepG2, MDA-MB-231 cells (SI = EC50 on HP-F cells/EC50 on solid cancer cells). Samples with SI values greater than three were considered to have high selectivity towards cancer cells.

HepG2 cells [2] = assay: MTS cell proliferation assay, HepG2; type: cell-based, human; settings: for SI (selective index): EC50 of HP-F cells/EC50 on HepG2, 24 h; for EC50: MTS
Experimental: as §1

THP-1 cells = assay: MTS cell proliferation assay, THP-1; type: cell-based, human; settings: for EC50: MTS
Experimental: as §1

HepG2 cells [3] = assay: Human cancer drug targets RT2 profiler PCR array; type: cell-based
Experimental: Total RNA extraction was performed using Arum Total RNA minikit (Bio-Rad, Hercules, CA, USA). RNA concentration and purity was determined by measuring the absorbance using a NanoDrop (NanoDrop Technologies, Wilmington, DE, USA). RNA integrity was assessed by formaldehyde agarose gel electrophoresis. RNA (400 ng) was used to synthesize cDNA using RT^2 First Strand kit (SABiosciences, Frederick, MD, USA). RT^2 RNA QC PCR arrays (SABiosciences, Frederick, MD, USA) was used to assess the quality of cDNA samples before characterization with the human cancer drug targets RT^2 profiler PCR array (SABiosciences, Frederick, MD, USA). Gene expression profiles of 84 genes were investigated using the human cancer drug targets RT^2 profiler PCR array (PAHS-507ZD) on a Bio-Rad CFX Connect (Bio-Rad, Hercules, CA, USA) using RT^2 real-time SYBR green PCR master mix (SABiosciences, Frederick, MD, USA). […] Reproducibility was maintained by using three biological replicates from three individual experiments.

MDA-MB-231 cells = assay: MTS cell proliferation assay, MDA-MB-231; type: cell-based, human; settings: for SI (selective index): EC50 of HP-F cells/EC50 on MDA-MB-231, 24 h; for EC50: MTS
Experimental: as §1

HepG2 cells [4] = assay: LDH release cytotoxicity assay; type: cell-based, human; settings: HepG2, 100 µM, 6 h, relative to maximum release by 1% Triton X-100
Experimental: Lactate dehydrogenase (LDH) is a stable cytosolic enzyme that is released upon membrane damage in apoptotic/necrotic cells. LDH activity was measured using CytoTox 96 Non-Radioactive Cytotoxicity Assay (Promega, Madison, WI, USA), in which LDH released in culture supernatants is measured with a coupled enzymatic assay, resulting in conversion of a tetrazolium salt into a red formazan product. […] After centrifugation, the supernatant was removed to an assay plate, and the LDH released from the cells into culture medium was measured. The maximal release was obtained after treating control cells with 1% Triton X-100 for 30 min at room temperature. The apoptotic/necrotic percentage was expressed using the formula: (sample value/maximal release)×100%.

[5] = 84-gene array, vs vehicle control

Structure (SMILES): CC/C=C\C/C=C\C/C=C\C/C=C\C/C=C\C/C=C\CCC(=O)OC[C@H]1O[C@@H](Oc2cc(O)cc(O)c2C(=O)CCc2ccc(O)cc2)[C@H](O)[C@@H](O)[C@@H]1O [Pz-DHA ester, DHA ester of Pz]
- EC50 [1]: > 100 µM
- SI (selective index) (HepG2 cells [2]): 11.2
- EC50 (HepG2 cells [2]; HepG2, 3 h): 76.9 ± 5.8 µM
- EC50 (HepG2 cells [2]; HepG2, 6 h): 64.4 ± 5.9 µM
- EC50 (HepG2 cells [2]; HepG2, 12 h): 56.2 ± 4.9 µM
- EC50 (HepG2 cells [2]; HepG2, 18 h): 54.2 ± 3.9 µM
- EC50 (HepG2 cells [2]; HepG2, 24 h): 51.9 ± 3.8 µM
- SI (selective index) (THP-1 cells; EC50 of HP-F cells/EC50 on THP-1, 24 h): 21.3
- EC50 (THP-1 cells; THP-1, 3 h): 65.8 ± 5.2 µM
- EC50 (THP-1 cells; THP-1, 6 h): 49.5 ± 3.8 µM
- EC50 (THP-1 cells; THP-1, 12 h): 42.7 ± 3 µM
- EC50 (THP-1 cells; THP-1, 18 h): 35.8 ± 2.8 µM
- EC50 (THP-1 cells; THP-1, 24 h): 27.3 ± 1.2 µM
- number of genes down-regulated (more than two-fold) (HepG2 cells [3]; [5]): 41 genes
- number of genes unaffected (HepG2 cells [3]; [5]): 35 genes
- number of genes up-regulated (more than two-fold) (HepG2 cells [3]; [5]): 8 genes
- Fold change of gene expression relative to control: BCL2 (HepG2 cells [3]; Apoptosis gene, RT-PCR array): −2.8 fold
- Fold change of gene expression relative to control: AKT1 (HepG2 cells [3]; RT-PCR array): −6.1 fold
- Fold change of gene expression relative to control: AKT2 (HepG2 cells [3]; RT-PCR array): −2.8 fold
- Fold change of gene expression relative to control: AURKB (HepG2 cells [3]; RT-PCR array): −2.0 fold
- Fold change of gene expression relative to control: CDK2 (HepG2 cells [3]; RT-PCR array): −2.0 fold
- Fold change of gene expression relative to control: CDK9 (HepG2 cells [3]; RT-PCR array): −2.1 fold
- Fold change of gene expression relative to control: EGFR (HepG2 cells [3]; RT-PCR array): −8.9 fold
- Fold change of gene expression relative to control: ERBB2 (HepG2 cells [3]; RT-PCR array): −5.7 fold
- Fold change of gene expression relative to control: ERBB3 (HepG2 cells [3]; RT-PCR array): −6.1 fold
- Fold change of gene expression relative to control: FLT1 (HepG2 cells [3]; RT-PCR array): 16.5 fold
- Fold change of gene expression relative to control: GRB2 (HepG2 cells [3]; RT-PCR array): −8.6 fold
- Fold change of gene expression relative to control: HDAC1 (HepG2 cells [3]; RT-PCR array): −2.6 fold
- Fold change of gene expression relative to control: HDAC4 (HepG2 cells [3]; RT-PCR array): −4.1 fold
- Fold change of gene expression relative to control: HDAC6 (HepG2 cells [3]; RT-PCR array): −5.4 fold
- Fold change of gene expression relative to control: HDAC7 (HepG2 cells [3]; RT-PCR array): −6.0 fold
- Fold change of gene expression relative to control: HDAC11 (HepG2 cells [3]; RT-PCR array): −20.1 fold
- Fold change of gene expression relative to control: IGF1R (HepG2 cells [3]; RT-PCR array): −4.2 fold
- Fold change of gene expression relative to control: IGF2 (HepG2 cells [3]; RT-PCR array): −2.3 fold
- Fold change of gene expression relative to control: IRF5 (HepG2 cells [3]; RT-PCR array): −2.3 fold
- Fold change of gene expression relative to control: KDR (HepG2 cells [3]; RT-PCR array): −2.8 fold
- Fold change of gene expression relative to control: KRAS (HepG2 cells [3]; RT-PCR array): −4.0 fold
- Fold change of gene expression relative to control: MDM4 (HepG2 cells [3]; RT-PCR array): −2.1 fold
- Fold change of gene expression relative to control: NF−κB (HepG2 cells [3]; RT-PCR array): −4.3 fold
- Fold change of gene expression relative to control: PARP1 (HepG2 cells [3]; RT-PCR array): −5.4 fold
- Fold change of gene expression relative to control: PDGFRA (HepG2 cells [3]; RT-PCR array): −2.8 fold
- Fold change of gene expression relative to control: PDGFRB (HepG2 cells [3]; RT-PCR array): −16.8 fold
- Fold change of gene expression relative to control: PIK3C2A (HepG2 cells [3]; RT-PCR array): −2.2 fold
- Fold change of gene expression relative to control: PLK1 (HepG2 cells [3]; RT-PCR array): −2.9 fold
- Fold change of gene expression relative to control: PRKCA (HepG2 cells [3]; RT-PCR array): −8.1 fold
- Fold change of gene expression relative to control: PRKCD (HepG2 cells [3]; RT-PCR array): −2.1 fold
- Fold change of gene expression relative to control: PRKCE (HepG2 cells [3]; RT-PCR array): −5.6 fold
- Fold change of gene expression relative to control: TERT (HepG2 cells [3]; RT-PCR array): −5.6 fold
- Fold change of gene expression relative to control: TOP2A (HepG2 cells [3]; RT-PCR array): −2.7 fold
- Fold change of gene expression relative to control: TOP2B (HepG2 cells [3]; RT-PCR array): −2.3 fold
- Fold change of gene expression relative to control: TP53 (HepG2 cells [3]; RT-PCR array): −7.4 fold
- Fold change of gene expression relative to control: mTOR (HepG2 cells [3]; RT-PCR array): −3.6 fold
- Fold change of gene expression relative to control: FLT1 (HepG2 cells [3]; RT-PCR array, listed as Phloridzin-DHA): +16.5 fold
- SI (selective index) (MDA-MB-231 cells): 10.5
- EC50 (MDA-MB-231 cells; MDA-MB-231, 3 h): 132 ± 9.9 µM
- EC50 (MDA-MB-231 cells; MDA-MB-231, 6 h): 83.7 ± 7.5 µM
- EC50 (MDA-MB-231 cells; MDA-MB-231, 12 h): 70.2 ± 6.1 µM
- EC50 (MDA-MB-231 cells; MDA-MB-231, 18 h): 62.6 ± 5.1 µM
- EC50 (MDA-MB-231 cells; MDA-MB-231, 24 h): 55.5 ± 4.5 µM

Structure (SMILES): CC/C=C\C/C=C\C/C=C\C/C=C\C/C=C\CCCC(=O)OC[C@H]1O[C@@H](Oc2cc(O)cc(O)c2C(=O)CCc2ccc(O)cc2)[C@H](O)[C@@H](O)[C@@H]1O [Pz-EPA ester, eicosapentaenoic acid ester (EPA) of Pz]
- EC50 [1]: > 100 µM
- SI (selective index) (HepG2 cells [2]): 7.4
- EC50 (HepG2 cells [2]; HepG2, 3 h): 39.4 ± 2.8 µM
- EC50 (HepG2 cells [2]; HepG2, 6 h): 37.8 ± 1.9 µM
- EC50 (HepG2 cells [2]; HepG2, 12 h): 36 ± 2.1 µM
- EC50 (HepG2 cells [2]; HepG2, 18 h): 33.1 ± 2.4 µM
- EC50 (HepG2 cells [2]; HepG2, 24 h): 26.8 ± 1.8 µM
- EC50 (THP-1 cells; THP-1, 3 h): 27.9 ± 1.5 µM
- EC50 (THP-1 cells; THP-1, 6 h): 19.9 ± 1.1 µM
- EC50 (THP-1 cells; THP-1, 12 h): 17 ± 0.6 µM
- EC50 (THP-1 cells; THP-1, 18 h): 15.8 ± 0.8 µM
- EC50 (THP-1 cells; THP-1, 24 h): 14.8 ± 0.6 µM
- LDH release (HepG2 cells [4]): 82.7±1.5%
- SI (selective index) (MDA-MB-231 cells): 7.5
- EC50 (MDA-MB-231 cells; MDA-MB-231, 3 h): 37.9 ± 2.2 µM
- EC50 (MDA-MB-231 cells; MDA-MB-231, 6 h): 33.6 ± 1.8 µM
- EC50 (MDA-MB-231 cells; MDA-MB-231, 12 h): 32.6 ± 1.8 µM
- EC50 (MDA-MB-231 cells; MDA-MB-231, 18 h): 31.5 ± 2.3 µM
- EC50 (MDA-MB-231 cells; MDA-MB-231, 24 h): 26.5 ± 1.1 µM
